System: RMP1
Assay: Rapamycin sensitive signaling on human RMP1: immunoblot of RMP in insulin-induced HEK293 cells
Format: cell-based
Conditions: serum-deprived HEK293 cells, 50 nM insulin, after 1 h induction, maintained throughout 8 h, no rapamycin
Procedure: Human Embryonic kidney (HEK293) cells are grown in DMEM+10% FCS. Exponentially growing HEK 293 cells are deprived of serum overnight, and then induced with 50 nM insulin in the presence or absence of 20 nM rapamycin. Protein extracts were prepared from cells harvested at 0 h, 1 h, 2 h, 4 h and 8 h after insulin induction. The cell extracts were subjected to SDS-polyacrylamide gel electrophoresis and the resulting gels were analyzed by immuno-blotting using a rabbit polyclonal anti-human RMP antibody. Antibodies specific for RMP are easily prepared using standard laboratory practices. A secondary antibody specific for rabbit antibodies, labelled was used to visualize RMP on the immunoblot using routine procedures.
In the presence of insulin and amino acids (in the culture medium in this example), RMP is present as a slower migrating form, indicating a phosphorylated form. Under these conditions, the cells continue to synthesize […]. With the addition of rapamycin, RMP is present as a fast migrating form and blocks the synthesis of […]

Substance: insulin
- slower migrating form of RMP: induced
